Measured values: the NIST ThermoML archive (doi:10.1016/j.jct.2013.01.013)

Assay: xn = mol fraction of the nth substance listed
Conditions: 101 kPa, Liquid; for viscosity: Capillary tube (Ostwald / Ubbelohde) method; for speed of sound: Linear variable-path acoustic interferometer; for mass density: Pycnometric method

C=C(C)C(=O)OC [methyl methacrylate] + CN(C)C=O
Conditions	mass density [kg/m3]	speed of sound [m/s]	viscosity [mPa·s]
288.15 K, x1 = 0.0696	953.35	1484.1	0.905
288.15 K, x1 = 0.1417	953.07	1464.4	0.868
288.15 K, x1 = 0.211	952.8	1445.5	0.8355
288.15 K, x1 = 0.2855	952.5	1425.2	0.8041
288.15 K, x1 = 0.3573	952.22	1405.4	0.7765
288.15 K, x1 = 0.4308	951.91	1384.8	0.7513
288.15 K, x1 = 0.5042	951.58	1363.9	0.729
288.15 K, x1 = 0.578	951.23	1342.6	0.7083
288.15 K, x1 = 0.6552	950.86	1320	0.6885
288.15 K, x1 = 0.7204	950.53	1300.7	0.6742
288.15 K, x1 = 0.7873	950.19	1280.7	0.6612
288.15 K, x1 = 0.8548	949.84	1260.4	0.6505
288.15 K, x1 = 0.9268	949.47	1238.7	0.6417
288.15 K, x1 = 1	949.1	1216.8	0.634
293.15 K, x1 = 0.0696	948.76	1466.8	0.834
293.15 K, x1 = 0.1417	948.39	1447.2	0.8009
293.15 K, x1 = 0.211	948.03	1428.4	0.7713
293.15 K, x1 = 0.2855	947.64	1408.2	0.742
293.15 K, x1 = 0.3573	947.25	1388.5	0.717
293.15 K, x1 = 0.4308	946.85	1368	0.6941
293.15 K, x1 = 0.5042	946.43	1347.2	0.6736
293.15 K, x1 = 0.578	946	1326	0.6552
293.15 K, x1 = 0.6552	945.53	1303.5	0.6382
293.15 K, x1 = 0.7204	945.13	1284.3	0.6261
293.15 K, x1 = 0.7873	944.72	1264.4	0.6149
293.15 K, x1 = 0.8548	944.29	1244.1	0.6055
293.15 K, x1 = 0.9268	943.83	1222.5	0.598
293.15 K, x1 = 1	943.37	1200.5	0.5903
298.15 K, x1 = 0.0696	944.17	1450	0.7818
298.15 K, x1 = 0.1417	943.71	1430.6	0.7509
298.15 K, x1 = 0.211	943.26	1411.8	0.7233
298.15 K, x1 = 0.2855	942.77	1391.5	0.6958
298.15 K, x1 = 0.3573	942.29	1371.8	0.672
298.15 K, x1 = 0.4308	941.79	1351.3	0.651
298.15 K, x1 = 0.5042	941.28	1330.4	0.632
298.15 K, x1 = 0.578	940.76	1309.2	0.6151
298.15 K, x1 = 0.6552	940.21	1286.7	0.6
298.15 K, x1 = 0.7204	939.73	1267.4	0.5885
298.15 K, x1 = 0.7873	939.24	1247.4	0.5786
298.15 K, x1 = 0.8548	938.74	1227.1	0.57
298.15 K, x1 = 0.9268	938.19	1205.3	0.5625
298.15 K, x1 = 1	937.63	1183.6	0.5544
303.15 K, x1 = 0.0696	–	1430.3	0.737
303.15 K, x1 = 0.1417	–	1411.3	0.7088
303.15 K, x1 = 0.211	–	1393	0.683
303.15 K, x1 = 0.2855	–	1373.1	0.6568
303.15 K, x1 = 0.3573	–	1353.7	0.6346
303.15 K, x1 = 0.4308	–	1333.6	0.6148
303.15 K, x1 = 0.5042	–	1313.1	0.5972
303.15 K, x1 = 0.578	–	–	0.5817
303.15 K, x1 = 0.6552	–	–	0.5675
303.15 K, x1 = 0.7204	–	–	0.5575
303.15 K, x1 = 0.7873	–	–	0.5486
303.15 K, x1 = 0.8548	–	–	0.5408
303.15 K, x1 = 0.9268	–	–	0.5331
303.15 K, x1 = 1	–	–	0.5251
